Assay results from patent US7297353B2, “Use of anemonin for treating aseptic inflammations” (priority 2000, dated 2007).
“And” between values parts separate entries of the source, which are not always exact repeats. Equal values may be shown once.

Tests used:
[1] = In vitro percutaneous penetration velocity of anemonin; type: in vitro ADME; design: steady penetration velocity into derma: unit not given here; settings: for Js: steady penetration velocity / Q24: cumulative amount of percutaneous penetration medicament per square centimeter for 24 hours / Tlag: time lag: n = 3
[2] = test system: IL-2; assay: Cytokine production from splenocytes, ConA stimulation, IL-2 (ELISA); type: cell-based, murine; settings: 24 h
Protocol: (§1) For splenocyte cytokine production assay, 5×10^6 cells per well were inoculated into a 24-well tissue culture plate with ConA (5 mg/L) or Sac (1:10000) stimulation. Different concentrations of Anemonin were added in a final volume of 2 ml. Cells were incubated at 37° C., 5% CO2 for 24 h and supernatants were harvested, IFN-γ, IL-10, IL12 (p40) and IL-2 in supernatants were measured by the sandwich enzyme-linked immunosorbent assay (ELISA) as specified by the manufacturer (BD Bioscience pharmingen, US). Concentrations of the cytokine productions were calculated based on standard curves obtained from serial dilutions of murine cytokines (r IFN-γ, rIL-10, rIL12, rIL-2). As shown in Tables C-3 and C-4, high-dose Anemonin (1-100 μg/ml) inhibited all kinds of cytokine release induced by ConA or Sac.

[3] = test system: spleen cells; assay: Cytotoxicity effect of anemonin (MTT assay); type: cell-based, ICR mice; settings: for OD value: 48 h
Protocol: The cell viability was determined by using 3-(4,5-dimethylthiazol-2-yl)-2,5-Diphenyl-tetrazolium bromide (MTT) assay. In brief, fresh spleen cells were obtained from ICR mice (male, 7-9 weeks old), 5×10^5 of spleen cells were cultured in 96-well flat plates. The medium was contained various concentrations of anemonin. After incubation for up to 48 h, MTT solution (5 mg/m in saline) was added to the 96 plates and cells were allowed to incubate for 6 h at 37° C. After the medium had been removed 100 μl, the cell and dye crystals were solubilized by adding 100 μl 10% sodium dodecyl sulfate (SDS), and then absorption was measured at 570 nm with a model 550-microplate reader (Bio-Rad).

[4] = test system: IL-10; assay: Cytokine production from splenocytes, Sac stimulation, IL-10 (ELISA); type: cell-based, murine; settings: 24 h
Protocol: as §1

[5] = test system: IL-12(p40); assay: Cytokine production from splenocytes, Sac stimulation, IL-12(p40) (ELISA); type: cell-based, murine; settings: 24 h
Protocol: as §1

[6] = test system: murine spleens cells stimulated with ConA; assay: T-cell proliferation, spleen cells stimulated with ConA ([3H]-thymidine uptake); type: cell-based, ICR mice; settings: for [^3H]-TDRincorparation(CPM × 10^−3): ConA 5 μg/ml, 48 hrs
Protocol: Fresh spleen cells were obtained from ICR mice (male, 7-9 weeks old), 5×10^5 of spleen cells were cultured in 96-well flat plates with […] of RPMI 1640 media containing 10% FBS, 100 U/ml penicillin and 100 μg/ml streptomyin in a humidified, 37° C., 5% CO2 incubator for 48 hrs. The cultures were either unstimulated, or were stimulated with 5 μg/ml of ConA or 10 μg/ml of LPS to induce T cells or B cells proliferative responses respectively. The compounds were added in cultures with indicated concentrations to test their bioactivities. Profileration was assessed in terms of uptake of [^3H]-thymidine during 6-12 hours pulsing with 20 kBq [^3H]-thymidine/well, then the cells were harvested by a Basic 96 harvester, and counted in a 1540 MicroBeta Trilux (PerkinElmer Life Sciences).

[7] = test system: dimethylbenene-induced ear swelling; assay: Acute ear edema of mice induced by dimethylbenene; type: in vivo; settings: for Ear swellin: 50 μl on ear, two hours after dimethylbenene
Protocol: The mice were randomly divided into 5 groups. Thirty minutes and sixty minutes after applying dimethylbenene (50 μl) to the anterior and posterior surfaces of the right ear, 25% ethanol (50 μl), the linimene solutions of anemonin (0.05, 0.5, 5 mg/ml, 50 μl) and FAA (a positive control) were applied on the same ears of mice respectively. The left ear was considered as control. Two hours after dimethylbenene application, mice were killed and both ears were removed. Circular sections were taken, using a 9 mm-diameter borer, and weighed. The increase in weight caused by the irritant was measured by subtracting the weight of the untreated left ear section from that of the treated right ear section.

O=C1C=CC2(CCC23C=CC(=O)O3)O1 (stereo not shown) [Anemonin, anemonin]
ER: increased permeation times ([1]; 30% ethanol solution): 2.0
Js: steady penetration velocity ([1]; 30% ethanol solution): 4.65 ± 0.47 μg · cm^−2 · h^−1
Q24: cumulative amount of percutaneous penetration medicament per square centimeter for 24 hours ([1]; 30% ethanol solution): 104.45 ± 12.58 μg · cm^−2
Tlag: time lag ([1]; 30% ethanol solution): 1.09 ± 0.20 h
steady penetration velocity into derma ([1]; 30% of ethanol): 4.65
ER: increased permeation times ([1]; water-saturated solution): 1.0
Js: steady penetration velocity ([1]; water-saturated solution): 2.28 μg · cm^−2 · h^−1 and 2.28 ± 0.39 μg · cm^−2 · h^−1
Q24: cumulative amount of percutaneous penetration medicament per square centimeter for 24 hours ([1]; water-saturated solution): 50.49 ± 6.48 μg · cm^−2
Tlag: time lag ([1]; water-saturated solution): 2.05 ± 0.74 h
IL-2 ([2]; 0.001 μg/ml): 482 ± 7 pg/mL
IL-2 ([2]; 0.01 μg/ml): 479 ± 5 pg/mL
IL-2 ([2]; 0.1 μg/ml): 461 ± 2 pg/mL
IL-2 ([2]; 1 μg/ml): 190 ± 2 pg/mL
IL-2 ([2]; 10 μg/ml): 22 ± 1 pg/mL
IL-2 ([2]; 100 μg/ml): 28 ± 1 pg/mL
cytotoxicity ([3]; 0.001 ug/ml): No
OD value ([3]; 0.001 ug/ml, 570 nM): 0.196 ± 0.006
cytotoxicity ([3]; 0.01 ug/ml): No
OD value ([3]; 0.01 ug/ml): 0.193 ± 0.007
cytotoxicity ([3]; 0.1 ug/ml): No
OD value ([3]; 0.1 ug/ml): 0.200 ± 0.011
cytotoxicity ([3]; 1 ug/ml): Yes
OD value ([3]; 1 ug/ml): 0.160 ± 0.004
cytotoxicity ([3]; 10 ug/ml): Yes
OD value ([3]; 10 ug/ml): 0.135 ± 0.003
cytotoxicity ([3]; 100 ug/ml): Yes
OD value ([3]; 100 ug/ml): 0.118 ± 0.011
cytotoxic effects ([3]; 1-100 μg/ml): cytotoxic effects in a dose-dependent manner
IL-10 ([4]; 0.001 μg/ml): 1242 ± 46 pg/mL
IL-10 ([4]; 0.01 μg/ml): 1235 ± 19 pg/mL
IL-10 ([4]; 0.1 μg/ml): 1229 ± 9 pg/mL
IL-10 ([4]; 1 μg/ml): 749 ± 64 pg/mL
IL-10 ([4]; 10 μg/ml): 249 ± 0 pg/mL
IL-10 ([4]; 100 μg/ml): 274 ± 18 pg/mL
IL-12(p40) ([5]; 0.001 μg/ml): 501 ± 6 pg/mL
IL-12(p40) ([5]; 0.01 μg/ml): 446 ± 0 pg/mL
IL-12(p40) ([5]; 0.1 μg/ml): 444 ± 3 pg/mL
IL-12(p40) ([5]; 1 μg/ml): 293 ± 0 pg/mL
IL-12(p40) ([5]; 10 μg/ml): 86 ± 6 pg/mL
IL-12(p40) ([5]; 100 μg/ml): 72 ± 4 pg/mL
[^3H]-TDRincorparation(CPM × 10^−3) ([6]; 0.001 μg/ml): 30.1 ± 1.31 CPM × 10^−3
[^3H]-TDRincorparation(CPM × 10^−3) ([6]; 0.01 μg/ml): 33.2 ± 2.56 CPM × 10^−3
[^3H]-TDRincorparation(CPM × 10^−3) ([6]; 0.1 μg/ml): 30.9 ± 0.78 CPM × 10^−3
[^3H]-TDRincorparation(CPM × 10^−3) ([6]; 1 μg/ml): 21.7 ± 0.53 CPM × 10^−3
[^3H]-TDRincorparation(CPM × 10^−3) ([6]; 10 μg/ml): 0.03 ± 0.01 CPM × 10^−3
[^3H]-TDRincorparation(CPM × 10^−3) ([6]; 100 μg/ml): 0.02 ± 0.01 CPM × 10^−3
T-cell proliferation ([6]; 1-100 μg/ml): significantly inhibited
Ear swellin ([7]; 0.05 mg/ml liniment): 18 ± 7 mg
Ear swellin ([7]; 0.5 mg/ml liniment): 16 ± 4 mg
Ear swellin ([7]; 5 mg/ml liniment): 12 ± 4 mg
ear edema formation ([7]; 0.05-5 mg/ml applied): inhibited in a dose-dependent manner
inhibitory effect on ear edema ([7]; doses of 2.5-25 μg/ear): statistically significant
